Results reported in patent US7572785B2, “Substituted imidazoles as cannabinoid receptor modulators” (Merck & Co., Inc., priority 2001, dated 2009).

Molecule `Cn1c(C(=O)NC2CCCCC2)nc(-c2ccc(Cl)cc2Cl)c1-c1ccc(Cl)cc1` has a melting point of 165 °C.
